Measured values as given in patent US20260240851A1, “Treatment of Parkinson's Disease in a Patient Using a Glucocerebrosidase Activator” (BIAL - R&D Investments, S.A., priority 2023, published 2026).

Assays:
[1] = system: GluCer, GluSph and LacCer in plasma, PBMCs and CSF; assay: LTI-291-002: glycolipid biomarkers; format: in vivo, human; conditions: healthy subjects
Experimental: This study was a phase 1, randomized, double-blind, placebo-controlled, multiple ascending dose study of Compound A in 4 cohorts of middle-aged to elderly healthy participants (aged 52 to 75 years). […] A total of 39 healthy subjects were enrolled in 4 sequential cohorts. Subjects in each cohort received once-daily oral doses of 3 mg (n=7), 10 mg (n=8), 30 mg (n=8), or 60 mg (n=8) Compound A or placebo (n=8) for 14 days. Pharmacokinetic parameters were determined for each dose at Day 1, Day 7, and Day 14. Cerebrospinal fluid samples for Compound A concentrations were measured before the first dose and 4 hours after the last dose for each dose level. GluCer, glucosyl sphingosine (GluSph), and lactosyl-ceramide (LacCer) were measured in plasma, PBMCs, and CSF as biomarkers of pharmacological effects. Pharmacodynamic measurements consisted of battery of CNS (NeuroCart®) assessments including Saccadic Eye Movements, Smooth Pursuit Eye Movements, Adaptive Tracking, Body Sway, Visual Verbal Learning Test, and pharmaco-EEG.

GCase = target: T1, GCase (Homo sapiens, UniProt P04062); assay: In vitro GCase brain homogenate activity assay superimposed on estimated human brain Cb,min,ss; format: biochemical; conditions: for minimum GCase activity in GBA-PD patients: brain Cmin at steady state (Cb,min,ss), estimated
T1 construct: brain homogenate (5 μg/well) as enzyme source; from tissue; host or cells: human brain homogenate
T1 sequence (P04062 40-536): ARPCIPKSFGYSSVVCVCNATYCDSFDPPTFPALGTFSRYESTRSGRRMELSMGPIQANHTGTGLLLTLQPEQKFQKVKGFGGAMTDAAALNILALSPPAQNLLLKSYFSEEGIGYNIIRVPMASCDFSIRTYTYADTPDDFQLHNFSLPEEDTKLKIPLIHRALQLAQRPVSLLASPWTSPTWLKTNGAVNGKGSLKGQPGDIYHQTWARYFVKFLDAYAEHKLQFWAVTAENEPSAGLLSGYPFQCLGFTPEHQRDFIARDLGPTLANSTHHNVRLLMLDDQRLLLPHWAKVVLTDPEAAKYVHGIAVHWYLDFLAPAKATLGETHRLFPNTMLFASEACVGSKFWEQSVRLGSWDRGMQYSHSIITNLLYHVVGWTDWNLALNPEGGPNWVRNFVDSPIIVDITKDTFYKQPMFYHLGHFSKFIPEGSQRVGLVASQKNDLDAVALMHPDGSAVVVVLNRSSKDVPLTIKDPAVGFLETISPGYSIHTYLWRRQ
Source text: The in vitro measurement of GCase activity in human brain homogenates was used to correlate the exposure and GCase activity and to estimate the increase in GCase activity in the brain of GBA-PD patients at Cmin at steady state (Cb,min,ss) across different dose levels. The relationship between concentration observed in brain and CSF in rat was used to obtain the brain concentrations of Compound A in humans, assuming the same relationship conserved among mammalian species. The range of human estimated Cb,min,ss were superimposed to the corresponding concentration from in vitro study with human brain homogenates to obtain the GCase activation by Compound A.
The activity of Compound A in the GCase assay was determined using 4-MUG (1 mM) as substrate and brain homogenate (5 μg/well) as enzyme source.
A 500 μl aliquot of a 1.0 mg/ml solution of phosphatidylserine (PS, Sigma P7769) in chloroform was evaporated under a stream of nitrogen for 1 hour. The lipid film was dissolved with 4 minutes of vigorous vortexing in 41 ml of 176 mM K2HPO4/50 mM citric acid pH 4.7 containing 7.7 μl of triton X-100, resulting in a mixed micellar preparation with a composition of 0.32 mM triton and 4.6 mol % PS.
4-methylumbelliferyl-beta-D-glucopyranoside (4-MUG, ACROS-337025000) was dissolved in the micellar solution to a final concentration of 2 mM for use as the reaction substrate. The micellar/homogenate solution was prepared by adding 3.2 ml Triton X-100/phosphotidylserine mixed micelles containing 400 μg/mL brain homogenate. A 1.6 mL portion of this mixture received 32 μl conduritol B epoxide (CBE, 100 mM stock in DMSO) for final concentration of 2 mM CBE. The remaining 1.6 mL portion received 32 μl DMSO as solvent control. Compound A was diluted with DMSO from a 10 mM stock to the desired assay concentrations, and 0.45 μl of compound in DMSO was added to 75 μl of micellar/homogenate solution (+/−CBE).
After a 30 minute pre-incubation at room temperature, the reaction was initiated by combining 25 μl of substrate solution with 25 μl of compound/GCase/homogenate mixture. The reaction proceeded for 30 minutes at room temperature for Rat, Cyno and Dog brain homogenates, 60 minutes for Mouse and Human brain homogenate. The reaction was stopped by adding 150 μl of 1M glycine, pH 12.5. The endpoint fluorescence intensity of the reaction was measured at excitation 365 nm, emission 440 nm on a SpectraMax i3 instrument (Molecular Devices). Compound activity was expressed relative to a DMSO control. […]
An API4000 mass spectrometer equipped with a turbo ion spray source was used for detection in positive ion mode. Quantification was based on multiple reaction monitoring (MRM) of the transitions of m/z 359.2-174.2 for LTI-291 and m/z 365.3-180.2 for its internal standard. […]

CCCCCO[C@H]1CC[C@H](NC(=O)c2cnn3c(C)cc(C)nc23)CC1 [Compound A, 5,7-dimethyl-N-((1S*,4S)-4-(pentyloxy)cyclohexyl)pyrazolo[1,5-a]pyrimidine-3-carboxamide]
consistent pharmacodynamic effect on glycolipids ([1]; 14 days of dosing): not observed
GluCer and LacCer variables in CSF ([1]; 14 days): sporadic, statistically significant decreases
GluCer and LacCer variables in plasma and PBMCs ([1]; 14 days): Sporadic, statistically significant increases
minimum GCase activity in GBA-PD patients (GCase; 10 mg): 69.7-123%
minimum GCase activity relative to effective GCase activity (GCase; 10 mg, dosing interval 24 h): approximately 2 times
minimum GCase activity in GBA-PD patients (GCase; 30 mg): 163-306%
minimum GCase activity in GBA-PD patients (GCase; 60 mg): 255-376%
